# Source: patent US20260256792A1, “TREATMENT OF CHRONIC SPONTANEOUS URTICARIA BY ADMINISTERING (R)-2-[3-[4-AMINO-3-(2-FLUORO-4-PHENOXY-PHENYL)PYRAZOLO[3,4-D]PYRIMIDIN-1-YL]PIPERIDINE-1-CARBONYL]-4-METHYL-4-[4-(OXETAN-3-YL)PIPERAZIN-1-YL]PENT-2-ENENITRILE” (priority 2023, published 2026)
# Experiments:
# [1] = humans, oral administration; cited from earlier work
# other TEC family members = details: cited from earlier work
# [2] = test system: moderate-to-severe chronic spontaneous urticaria (CSU); test: Phase 2 CSU study: Patient Global Impression of Severity (PGIS); type: in vivo, human; details: for PGIS Change from baseline Mean (SD) / PGIS Change from baseline Median / PGIS Median / PGIS Percent change from baseline Mean (SD) / PGIS Percent change from baseline Median / PGIS category Mild, patients / PGIS category Moderate, patients / PGIS category None, patients / PGIS category Severe, patients: omalizumab-naïve population; for PGIS % Change difference for rilzabrutinib vs. placebo LS Mean (95% CI) / PGIS % Change from baseline LS Mean (SE) / PGIS Change difference for rilzabrutinib vs. placebo LS Mean (95% CI) / PGIS Change from baseline LS Mean (SE): omalizumab-naïve, ANCOVA
# From the text: The study comprises a 12 week, randomized, double-blind, placebo-controlled, multi-center, dose-ranging efficacy and safety phase, followed by a 40 week open label extension (OLE) phase (see FIG. 1).
# The study consists of three phases and an optional OLE phase.
# The PGIS is a 1-item measure that asks participants to provide a self-assessment of their overall CSU severity for the past week on a 4 point scale. Response choices are: “None”, “Mild”, “Moderate” and “Severe”. The PGIC is a 1-item measure that asks the participant to provide a self-assessment of overall change in their CSU since the participant started taking the study medication on a 7-point scale. The response options range from “Very Much Better” to “Very Much Worse.” Patients were to complete questionnaires for the 2 items during their site visit.
smiles,measurement,setting,value
"CC(C)(C=C(C#N)C(=O)N1CCC[C@@H](n2nc(-c3ccc(Oc4ccccc4)cc3F)c3c(N)ncnc32)C1)N1CCN(C2COC2)CC1 [rilzabrutinib, (R)-2-[3-[4-amino-3-(2-fluoro-4-phenoxy-phenyl)pyrazolo[3,4-d]pyrimidin-1-yl]piperidine-1-carbonyl]-4-methyl-4-[4-(oxetan-3-yl)piperazin-1-yl]pent-2-enenitrile]",absorption,[1],rapidly absorbed
same,half-life,[1],3 to 4 h
same,binding over time,other TEC family members,decayed rapidly over time
same,quality of life as measured by PGIS,[2]; 400 mg TID,improvement
same,PGIS Change from baseline Mean (SD),"[2]; Week 2, 400 mg BID",−0.65
same,PGIS Change from baseline Median,"[2]; Week 2, 400 mg BID",0.00
same,PGIS Median,"[2]; Week 2, 400 mg BID",2.00
same,PGIS Percent change from baseline Mean (SD),"[2]; Week 2, 400 mg BID",−23.12%
same,PGIS Percent change from baseline Median,"[2]; Week 2, 400 mg BID",0.00%
same,"PGIS category Mild, patients","[2]; Week 2, 400 mg BID",8 (25.8)
same,"PGIS category Moderate, patients","[2]; Week 2, 400 mg BID",14 (45.2)
same,"PGIS category None, patients","[2]; Week 2, 400 mg BID",5 (16.1)
same,"PGIS category Severe, patients","[2]; Week 2, 400 mg BID",4 (12.9)
same,PGIS % Change difference for rilzabrutinib vs. placebo LS Mean (95% CI),"[2]; Week 2, 400 mg BID","−7.56 (−24.17, 9.05) %"
same,PGIS % Change from baseline LS Mean (SE),"[2]; Week 2, 400 mg BID",−26.23 (6.28) %
same,PGIS Change difference for rilzabrutinib vs. placebo LS Mean (95% CI),"[2]; Week 2, 400 mg BID","−0.26 (−0.63, 0.11)"
same,PGIS Change from baseline LS Mean (SE),"[2]; Week 2, 400 mg BID",−0.76 (0.14)
same,PGIS Change from baseline Mean (SD),"[2]; Week 2, 400 mg QPM",−0.48
same,PGIS Change from baseline Median,"[2]; Week 2, 400 mg QPM",0.00
same,PGIS Median,"[2]; Week 2, 400 mg QPM",2.00
same,PGIS Percent change from baseline Mean (SD),"[2]; Week 2, 400 mg QPM",−17.68%
same,PGIS Percent change from baseline Median,"[2]; Week 2, 400 mg QPM",0.00%
same,"PGIS category Mild, patients","[2]; Week 2, 400 mg QPM",8 (24.2)
same,"PGIS category Moderate, patients","[2]; Week 2, 400 mg QPM",17 (51.5)
same,"PGIS category None, patients","[2]; Week 2, 400 mg QPM",0
same,"PGIS category Severe, patients","[2]; Week 2, 400 mg QPM",8 (24.2)
same,PGIS % Change difference for rilzabrutinib vs. placebo LS Mean (95% CI),"[2]; Week 2, 400 mg QPM","0.86 (−15.86, 17.59) %"
same,PGIS % Change from baseline LS Mean (SE),"[2]; Week 2, 400 mg QPM",−17.80 (6.05) %
same,PGIS Change difference for rilzabrutinib vs. placebo LS Mean (95% CI),"[2]; Week 2, 400 mg QPM","0.03 (−0.34, 0.41)"
same,PGIS Change from baseline LS Mean (SE),"[2]; Week 2, 400 mg QPM",−0.47 (0.14)
same,PGIS Change from baseline Mean (SD),"[2]; Week 2, 400 mg TID",−0.94
same,PGIS Change from baseline Median,"[2]; Week 2, 400 mg TID",1.00
same,PGIS Median,"[2]; Week 2, 400 mg TID",1.00
same,PGIS Percent change from baseline Mean (SD),"[2]; Week 2, 400 mg TID",−41.92%
same,PGIS Percent change from baseline Median,"[2]; Week 2, 400 mg TID",−50.00%
same,"PGIS category Mild, patients","[2]; Week 2, 400 mg TID",17 (50.0)
same,"PGIS category Moderate, patients","[2]; Week 2, 400 mg TID",9 (26.5)
same,"PGIS category None, patients","[2]; Week 2, 400 mg TID",4 (11.8)
same,"PGIS category Severe, patients","[2]; Week 2, 400 mg TID",4 (11.8)
same,PGIS % Change difference for rilzabrutinib vs. placebo LS Mean (95% CI),"[2]; Week 2, 400 mg TID","−22.00 (−38.77, −5.22) %"
same,PGIS % Change from baseline LS Mean (SE),"[2]; Week 2, 400 mg TID",−40.66 (6.06) %
same,PGIS Change difference for rilzabrutinib vs. placebo LS Mean (95% CI),"[2]; Week 2, 400 mg TID","−0.46 (−0.83, −0.09)"
same,PGIS Change from baseline LS Mean (SE),"[2]; Week 2, 400 mg TID",−0.96 (0.13)
same,PGIS Change from baseline Mean (SD),"[2]; Week 4, 400 mg BID",−0.70
same,PGIS Change from baseline Median,"[2]; Week 4, 400 mg BID",0.00
same,PGIS Median,"[2]; Week 4, 400 mg BID",2.00
same,PGIS Percent change from baseline Mean (SD),"[2]; Week 4, 400 mg BID",−27.78%
same,PGIS Percent change from baseline Median,"[2]; Week 4, 400 mg BID",0.00%
same,"PGIS category Mild, patients","[2]; Week 4, 400 mg BID",10 (30.3)
same,"PGIS category Moderate, patients","[2]; Week 4, 400 mg BID",15 (45.5)
same,"PGIS category None, patients","[2]; Week 4, 400 mg BID",5 (15.2)
same,"PGIS category Severe, patients","[2]; Week 4, 400 mg BID",3 (9.1)
same,PGIS % Change difference for rilzabrutinib vs. placebo LS Mean (95% CI),"[2]; Week 4, 400 mg BID","−1.31 (−17.26, 14.65) %"
same,PGIS % Change from baseline LS Mean (SE),"[2]; Week 4, 400 mg BID",−29.83 (5.99) %
same,PGIS Change difference for rilzabrutinib vs. placebo LS Mean (95% CI),"[2]; Week 4, 400 mg BID","−0.12 (−0.48, 0.25)"
same,PGIS Change from baseline LS Mean (SE),"[2]; Week 4, 400 mg BID",−0.81 (0.13)
same,PGIS Change from baseline Mean (SD),"[2]; Week 4, 400 mg QPM",−0.65
same,PGIS Change from baseline Median,"[2]; Week 4, 400 mg QPM",−0.50
same,PGIS Median,"[2]; Week 4, 400 mg QPM",2.00
same,PGIS Percent change from baseline Mean (SD),"[2]; Week 4, 400 mg QPM",−25.49%
same,PGIS Percent change from baseline Median,"[2]; Week 4, 400 mg QPM",−16.67%
same,"PGIS category Mild, patients","[2]; Week 4, 400 mg QPM",10 (29.4)
same,"PGIS category Moderate, patients","[2]; Week 4, 400 mg QPM",15 (44.1)
same,"PGIS category None, patients","[2]; Week 4, 400 mg QPM",1 (2.9)
same,"PGIS category Severe, patients","[2]; Week 4, 400 mg QPM",8 (23.5)
same,PGIS % Change difference for rilzabrutinib vs. placebo LS Mean (95% CI),"[2]; Week 4, 400 mg QPM","3.06 (−12.83, 18.95) %"
same,PGIS % Change from baseline LS Mean (SE),"[2]; Week 4, 400 mg QPM",−25.46 (5.77) %
same,PGIS Change difference for rilzabrutinib vs. placebo LS Mean (95% CI),"[2]; Week 4, 400 mg QPM","0.09 (−0.27, 0.44)"
same,PGIS Change from baseline LS Mean (SE),"[2]; Week 4, 400 mg QPM",−0.61 (0.13)
same,PGIS Change from baseline Mean (SD),"[2]; Week 4, 400 mg TID",−1.07
same,PGIS Change from baseline Median,"[2]; Week 4, 400 mg TID",1.00
same,PGIS Median,"[2]; Week 4, 400 mg TID",1.00
same,PGIS Percent change from baseline Mean (SD),"[2]; Week 4, 400 mg TID",−43.10%
same,PGIS Percent change from baseline Median,"[2]; Week 4, 400 mg TID",−50.00%
same,"PGIS category Mild, patients","[2]; Week 4, 400 mg TID",15 (51.7)
same,"PGIS category Moderate, patients","[2]; Week 4, 400 mg TID",9 (31.0)
same,"PGIS category None, patients","[2]; Week 4, 400 mg TID",3 (10.3)
same,"PGIS category Severe, patients","[2]; Week 4, 400 mg TID",2 (6.9)
same,PGIS % Change from baseline LS Mean (SE),"[2]; Week 4, 400 mg TID",−41.04 (6.24) %
